# In patent US4578395A, “Certain aralkylaminoalkyl esters of 1,4 dihydropyridines as antihypertensive” (Teijin Limited, priority 1983, dated 1986):
# Where a name gives a salt, the structure may show the parent alone.
# Columns and labels:
# rats periphery = experiment: Vasodilative activity in rats periphery (constant volume blood perfusion); format: in vivo, Male SD strain rats
# Experimental: Male SD strain rats, weighing 350 g to 450 g, were used. They were anesthetized with sodium pentobarbital 60 mg/kg i.p. […] The solution of the test compound was infused into the perfusion blood on the peripheral side with a perfusion pump, and changes in perfusion pressure were measured. The activity of the test compound was determined as the ratio of the relative activity of the test compound against papaverine obtained from the dose-response curves.
# [1] = tested on: SHR (Spontaneously Hypertensive Rats); experiment: Antihypertensive activity in SHR; format: in vivo, Male SHR (Spontaneously Hypertensive Rats); conditions: no anesthesia
# Experimental: Male SHR (14 to 16 weeks old) fasted for more than 16 hours were used. […] When one hour or more passed after the rats woke up out of the ether, they were administered the test compound orally. The blood pressure was measured with the pressure transducer via the catheter inserted into the femoral artery.
# The test compound was dissolved in a small quantity of ethanol and diluted with water to be adjusted for administration.
# Changes in the mean blood pressure were obtained from the equation mentioned below. The Basic and Clinical Study, vol. 14, p. 4495 (1980) is a useful literature to be referred to for making this kind of experiment. [formula]
# anesthetized rats = experiment: Hypotensive activity by intravenous administration in anesthetized rats (Example 23); format: in vivo, Male Wistar rats; conditions: for ED20: Rattus norvegicus, iv, anesthetized Wistar rats about 250 g, read-out: ED20 (dose decreasing mean blood pressure by 20%); for Duration T1/2 (half-life of hypotensive action): i.v., dose 10
# Experimental: (§1) Male Wistar rats weighing about 250 g were used. They were anesthetized with urethane (500 mg/kg) and α-chloralose (100 mg/kg) intraperitoneal injection.
# (§2) The test compound was dissolved in a small quantity of ethanol and the solution, which was then diluted with physiological saline to have a final concentration of ethanol kept at 5% or lower, was intravenously injected through a catheter inserted into the femoral vein.
# (§3) The blood pressure was recorded with the pressure transducer via the catheter inserted into the common carotid artery of the rats.
# (§4) Hypotensive activity of the test compound was indicated by the dose (ED20 μ/kg) required for decreasing the mean blood pressure by 20% as compared with the mean blood pressure before the administration.
# (§5) To determine the duration of the hypotensive action of the test compound, half-life of hypotensive action T^1 /2) was measured.
# mean blood pressure = experiment: Action on mean blood pressure in anesthetized dog; format: in vivo, male beagle dog; conditions: 10 μg/kg i.v.
# Experimental: (§6) A male beagle dog weighing about 10 kg was anesthetized with sodium pentobarbital (35 mg/kg i.v.). The test compound was dissolved in a small quantity of ethanol, diluted with an isotonic sodium chloride solution, and was injected into the right femoral vein.
# The mean blood pressure (MBP) was measured with the pressure transwer via the cannula inserted into the right femoral artery of the male beagle dog. The changes in the blood pressure after the administration of the test compound are shown in percentages in Table 5.
# anesthetized rat = experiment: Hypotensive activity by intravenous administration in anesthetized rat (Example 27); format: in vivo, Male Wistar rats; conditions: for ED20: Rattus norvegicus, iv, anesthetized Wistar rats about 300 g, read-out: ED20 (dose decreasing mean blood pressure by 20%); for Duration T1/2: i.v.
# Experimental: as §1, §2, §3, §4, §5
# Male Wistar rats weighing about 300 g were used. The measurement of hypotensive activity was conducted according to the same method as Example 23.
# [2] = tested on: peripheral blood vessels (femoral artery); experiment: Action on peripheral blood vessels (femoral blood flow) in anesthetized dog; format: in vivo, male beagle dog; conditions: 3 μg/kg i.v.
# Experimental: as §6
# The carotic blood flow (CBF) and the femoral blood flow (FBF) were measured with the electromagnetic blood flowmeter (MFV-1200 made by Japan Photoelectric Co., Ltd.) via probe for measuring the blood flow volume set in the right common carotid artery and the left femoral artery of the male beagle dog respectively.
# platelet aggregation = experiment: In vitro inhibitory activity of platelet aggregation; format: cell-based, male Hartley guinea pigs; conditions: Cavia porcellus, Platelet; Conc. 100 μM, AA 75 μM
# Experimental: The in vitro platelet aggregation inhibiting activities of the compounds of the invention were examined by using guinea pigs. Blood was withdrawn by cardiac puncture from male Hartley guinea pigs weighing […]. A mixture of a 3.8% trisodium citrate solution and the blood in a ratio of 1:9 was centrifuged at a speed of 800 rpm for 10 minutes. The upper layer was separated as platelet-rich plasma (PRP). The lower layer was further centrifuged at a separated as platelet-poor plasma (PPP). The number of platelets was adjusted to 5×10^5 /μl to 6×10^5 /μl by filuting the PRP with PPP. 25 microliters of the test compounds prepared as shown below was added in an amount of 25 microliters of PRP after the adjustment, and the mixture was pre-incubated at 37° C. for 2 minutes, and then 75 μM (final) of AA was added. By using an aggregometer (37° C., 1,100 rpm), changes in transmission were recorded.
# The test compound was dissolved in ethanol to a concentration of 10 mg/ml. When its activity was measured, it was used after being diluted with phosphate buffer (pH 7.4). Furthermore, after dilution with the buffer, the test compound was left to stand at 0° C. for 4 hours, and the activity of the test compound was similarly measured.
# The rate of inhibition of platelet aggregation was determined from the following equation. [formula]
# [3] = Light stability in methanol solution; format: physicochemical
# Experimental: 1 mg of compound (156) hydrochloride was dissolved in 100 ml of methanol. The solution was placed in a transparent glass test tube, and after the test tube was tightly stoppered, it was allowed to stand by the window of the laboratory. Part of the solution was taken at regular intervals and subjected to high performance liquid chromatograph to determined the remaining quantity of compound (156) hydrochloride contained in the solution. The same experiment was conducted with nicardipine hydrochloride as the control.
# conscious rats = experiment: Antihypertensive activity by oral administration in conscious rats; format: in vivo, Male Wistar rats; conditions: 10 mg/kg oral
# Experimental: When one hour or more passed after the rats were aroused, they were administered the test compound orally.
# The blood pressure in the femoral artery was recorder and changes in the mean blood pressure were obtained from the following equation. [formula]
compound,measurement,setting,value
"COC(=O)C1=C(C)NC(C)=C(C(=O)OCCN(C)Cc2ccccc2)C1c1cccc([N+](=O)[O-])c1F (stereo not drawn) [(104) hydrochloride, 2-(N-Benzyl-N-methylamino)ethyl methyl 2,6-dimethyl-4-(2-fluoro-3-nitrophenyl)-1,4-dihydropyridine-3,5-dicarboxylate]",relative vasodilative activity against papaverine,rats periphery; dosage 0.1 μg/kg,30 times
same,relative vasodilative activity against papaverine,rats periphery; dosage 1 μg/kg,50 times
"COC(=O)C1=C(C)NC(C)=C(C(=O)OCCN(C)Cc2ccccc2)C1c1cccc(Cl)c1F (stereo not drawn) [(106) hydrochloride, 2-(N-Benzyl-N-methylamino)ethyl methyl 2,6-dimethyl-4-(3-chloro-2-fluorophenyl)-1,4-dihydropyridine-3,5-dicarboxylate]",Changes in MBP,"[1]; 10 mg/kg oral, 30 min.",-56 ± 6 mmHg
same,Changes in MBP,"[1]; 10 mg/kg oral, 60 min.",-53 ± 11 mmHg
same,Changes in MBP,"[1]; 10 mg/kg oral, 90 min.",-46 ± 10 mmHg
same,Changes in MBP,"[1]; 10 mg/kg oral, 2 hr.",-47 ± 11 mmHg
same,Changes in MBP,"[1]; 10 mg/kg oral, 3 hr.",-39 ± 10 mmHg
same,Changes in MBP,"[1]; 10 mg/kg oral, 5 hr.",-37 mmHg
same,Changes in MBP,"[1]; 10 mg/kg oral, 7 hr.",-31 ± 7 mmHg
"COC(=O)C1=C(C)NC(C)=C(C(=O)OCC(C)(C)CN(C)Cc2ccccc2)C1c1cccc([N+](=O)[O-])c1F (stereo not drawn) [(130) hydrochloride, 3-(N-Benzyl-N-methylamino)-2,2-dimethylpropyl methyl 2,6-dimethyl-4-(2-fluoro-3-nitrophenyl)-1,4-dihydropyridine-3,5-dicarboxylate]",ED20,anesthetized rats,0.016 mg/kg
same,Duration T1/2 (half-life of hypotensive action),anesthetized rats,> 30 min
same,Changes in MBP,"[1]; 3 mg/kg oral, 30 min.",-67 ± 13 mmHg
same,Changes in MBP,"[1]; 3 mg/kg oral, 60 min.",-62 ± 13 mmHg
same,Changes in MBP,"[1]; 3 mg/kg oral, 90 min.",-60 ± 14 mmHg
same,Changes in MBP,"[1]; 3 mg/kg oral, 2 hr.",-54 ± 11 mmHg
same,Changes in MBP,"[1]; 3 mg/kg oral, 3 hr.",-48 ± 13 mmHg
same,Changes in MBP,"[1]; 3 mg/kg oral, 5 hr.",-40 mmHg
same,Changes in MBP,"[1]; 3 mg/kg oral, 7 hr.",-29 ± 8 mmHg
same,Changes in MBP,mean blood pressure; 0.5 min.,-7 ± 1%
same,Changes in MBP,mean blood pressure; 1 min.,-11 ± 1%
same,Changes in MBP,mean blood pressure; 2 min.,-14 ± 1%
same,Changes in MBP,mean blood pressure; 5 min.,-16 ± 2%
same,Changes in MBP,mean blood pressure; 10 min.,-19 ± 3%
same,Changes in MBP,mean blood pressure; 15 min.,-20 ± 3%
same,ED20,anesthetized rat,0.0147 mg/kg
same,Duration T1/2,anesthetized rat; dose 10,15 min
"COC(=O)C1=C(C)NC(C)=C(C(=O)OCC(C)(C)CN(C)Cc2ccccc2)C1c1cccc(Cl)c1F (stereo not drawn) [(156) hydrochloride, 3-(N-Benzyl-N-methylamino)-2,2-dimethylpropyl methyl 2,6-dimethyl-4-(3-chloro-2-fluorophenyl)-1,4-dihydropyridine-3,5-dicarboxylate]",ED20,anesthetized rats,0.0149 mg/kg
same,Duration T1/2 (half-life of hypotensive action),anesthetized rats,20 min
same,Changes in MBP,"[1]; 3 mg/kg oral, 30 min.",-41 ± 8 mmHg
same,Changes in MBP,"[1]; 3 mg/kg oral, 60 min.",-39 ± 7 mmHg
same,Changes in MBP,"[1]; 3 mg/kg oral, 90 min.",-35 ± 5 mmHg
same,Changes in MBP,"[1]; 3 mg/kg oral, 2 hr.",-28 ± 6 mmHg
same,Changes in MBP,"[1]; 3 mg/kg oral, 3 hr.",-28 ± 6 mmHg
same,Changes in MBP,"[1]; 3 mg/kg oral, 5 hr.",-18 mmHg
same,Changes in MBP,"[1]; 3 mg/kg oral, 7 hr.",-20 ± 4 mmHg
same,Changes in FBF,[2]; 0.5 min.,0 ± 0%
same,Changes in FBF,[2]; 1 min.,-1 ± 3%
same,Changes in FBF,[2]; 2 min.,+5 ± 5%
same,Changes in FBF,[2]; 5 min.,+19 ± 5%
same,Changes in FBF,[2]; 10 min.,+20 ± 10%
same,ED20,anesthetized rat,0.0245 mg/kg
same,Duration T1/2,anesthetized rat; dose 30,8.5 min
same,inhibition at 100 µM,platelet aggregation,-1.9 ± 2.5%
same,light stability compared with nicardipine hydrochloride,[3],better light stability than nicardipine hydrochloride
same,remaining at 2 h,"[3]; light, 2 hr., read-out: Remaining percentage",100%
same,remaining at 4 h,"[3]; light, 4 hr., read-out: Remaining percentage",99%
same,remaining at 6 h,"[3]; light, 6 hr., read-out: Remaining percentage",100%
"COC(=O)C1=C(C)NC(C)=C(C(=O)OCC(C)(C)CN(C)Cc2c(Cl)cccc2Cl)C1c1cccc(Cl)c1F (stereo not drawn) [(202) hydrochloride, 3-(N-2,6-Dichlorobenzyl-N-methylamino)-2,2-dimethylpropyl methyl 2,6-dimethyl-4-(3-chloro-2-fluorophenyl)-1,4-dihydropyridine-3,5-dicarboxylate]",Changes in mean blood pressure,conscious rats; after 30 min,-39 mmHg
same,Changes in mean blood pressure,conscious rats; after 60 min,-40 mmHg
same,Changes in mean blood pressure,conscious rats; after 90 min,-38 mmHg
same,Changes in mean blood pressure,conscious rats; after 2 hr,-33 mmHg
same,Changes in mean blood pressure,conscious rats; after 3 hr,-33 mmHg
same,Changes in mean blood pressure,conscious rats; after 5 hr,-24 mmHg
same,Changes in mean blood pressure,conscious rats; after 7 hr,-23 mmHg
"COC(=O)C1=C(C)NC(C)=C(C(=O)OCC(C)(C)CN(C)Cc2ccccc2)C1c1cccc([N+](=O)[O-])c1 (stereo not drawn) [(302) hydrochloride, 3-(N-Benzyl-N-methylamino)-2,2-dimethylpropyl methyl 2,6-dimethyl-4-(3-nitrophenyl)-1,4-dihydropyridine-3,5-dicarboxylate]",ED20,anesthetized rats,0.0091 mg/kg
same,Duration T1/2 (half-life of hypotensive action),anesthetized rats,> 30 min
COC(=O)C1=C(C)NC(C)=C(C(=O)OCC(C)(C)CN(C)C)C1c1cccc(Cl)c1F (stereo not drawn) [reference compound],ED20,anesthetized rat,0.0807 mg/kg
same,Duration T1/2,anesthetized rat; dose 100,4.6 min
COC(=O)C1=C(C)NC(C)=C(C(=O)OCC(C)(C)CN(C)C)C1c1cccc([N+](=O)[O-])c1Cl (stereo not drawn) [reference compound],ED20,anesthetized rat,0.288 mg/kg
same,Duration T1/2,anesthetized rat; dose 300,3.5 min
